Laboratory results reported in the supplement of paper PMC10307832.

How the values were obtained:
Test in all cases: relative viability (nuclei count vs DMSO), 5 days (fraction); higher = more cells survive
[1] = compound: N#CC[C@H](C1CCCC1)n1cc(-c2ncnc3[nH]ccc23)cn1 [Ruxolitinib] + CC(=O)c1c(C)c2cnc(Nc3ccc(N4CCNCC4)cn3)nc2n(C2CCCC2)c1=O [Palbociclib] (partner 0.5 µM)
Outline: (§1)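 Lung cancer cell lines, seeded in 1536-well plates, were treated the following day by pin tool with a single drug or with five library-drug doses (not always all listed) in √10 steps on top of a fixed anchor-drug dose. Cells were fixed and nuclei stained in one step after 5 days, and nuclei were counted. Relative viability is the nuclei count for treated wells divided by that for vehicle wells, reported as medians of duplicate plates.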

Vismodegib + Tozasertib = compound: CS(=O)(=O)c1ccc(C(=O)Nc2ccc(Cl)c(-c3ccccn3)c2)c(Cl)c1 [Vismodegib] + Cc1cc(Nc2cc(N3CCN(C)CC3)nc(Sc3ccc(NC(=O)C4CC4)cc3)n2)n[nH]1 [Tozasertib] (partner 0.1 µM)
Outline: as §1

Ruxolitinib + Decitabine = compound: N#CC[C@H](C1CCCC1)n1cc(-c2ncnc3[nH]ccc23)cn1 [Ruxolitinib] + Nc1ncn([C@H]2C[C@H](O)[C@@H](CO)O2)c(=O)n1 [Decitabine] (partner 2 µM)
Outline: as §1

Ruxolitinib + Alpelisib = compound: N#CC[C@H](C1CCCC1)n1cc(-c2ncnc3[nH]ccc23)cn1 [Ruxolitinib] + Cc1nc(NC(=O)N2CCC[C@H]2C(N)=O)sc1-c1ccnc(C(C)(C)C(F)(F)F)c1 [Alpelisib] (partner 2 µM)
Outline: as §1

Row | Cell Line | relative viability ([1]; first compound 0.08 µM) | relative viability ([1]; first compound 0.253 µM) | relative viability ([1]; first compound 0.8 µM) | relative viability ([1]; first compound 2.53 µM) | relative viability ([1]; first compound 8 µM) | relative viability (Vismodegib + Tozasertib; first compound 0.08 µM) | relative viability (Vismodegib + Tozasertib; first compound 0.253 µM) | relative viability (Vismodegib + Tozasertib; first compound 0.8 µM) | relative viability (Vismodegib + Tozasertib; first compound 2.53 µM) | relative viability (Vismodegib + Tozasertib; first compound 8 µM) | relative viability (Ruxolitinib + Decitabine; first compound 0.08 µM) | relative viability (Ruxolitinib + Decitabine; first compound 0.253 µM) | relative viability (Ruxolitinib + Decitabine; first compound 0.8 µM) | relative viability (Ruxolitinib + Decitabine; first compound 2.53 µM) | relative viability (Ruxolitinib + Decitabine; first compound 8 µM) | relative viability (Ruxolitinib + Alpelisib; first compound 0.08 µM) | relative viability (Ruxolitinib + Alpelisib; first compound 0.253 µM) | relative viability (Ruxolitinib + Alpelisib; first compound 0.8 µM) | relative viability (Ruxolitinib + Alpelisib; first compound 2.53 µM) | relative viability (Ruxolitinib + Alpelisib; first compound 8 µM)
1 | EMC-BAC-2 | 0.518 | 0.507 | 0.58 | 0.47 | 0.418 | 0.281 | 0.284 | 0.288 | 0.292 | 0.316 | 0.915 | 0.916 | 1.14 | 0.921 | 0.851 | 0.725 | 0.72 | 0.742 | 0.637 | 0.568
2 | NCI-H1666 | 0.66 | 0.613 | 0.654 | 0.675 | 0.632 | 0.564 | 0.684 | 0.591 | 0.585 | 0.7 | 0.601 | 0.666 | 0.753 | 0.678 | 0.721 | 0.973 | 0.821 | 1.06 | 0.823 | 1
3 | H3255 | 0.307 | 0.297 | 0.315 | 0.266 | 0.263 | 0.524 | 0.55 | 0.623 | 0.606 | 0.563 |  | 0.568 | 0.781 | 0.535 | 0.609 |  | 0.599 | 0.749 | 0.521 | 0.608
4 | NCI-H1793 | 0.291 | 0.287 | 0.307 | 0.319 | 0.335 |  | 0.336 | 0.393 | 0.269 | 0.279 | 0.436 | 0.502 | 0.488 | 0.392 | 0.413 | 0.539 | 0.654 | 0.789 | 0.83 | 0.679
5 | NCI-H1755 | 0.505 | 0.468 | 0.466 | 0.452 | 0.391 | 0.568 | 0.575 | 0.534 | 0.556 | 0.524 | 0.742 | 0.686 | 0.755 | 0.694 | 0.667 | 0.885 | 0.904 | 0.97 | 0.796 | 0.623
6 | LOU-NH91 | 0.61 | 0.526 | 0.52 | 0.532 | 0.53 | 0.622 | 0.688 | 0.644 | 0.656 | 0.675 | 0.684 | 0.813 | 0.829 | 0.782 | 0.798 | 0.569 | 0.674 | 0.796 | 0.736 | 0.694
